Like-named read-outs stand apart in the source and are kept apart here.
Test system: RSV A2 strain
Assay: In vitro CPE (CytoPathic Effect) inhibition effect evaluation test, RSV type A
Assay type: cell-based
Outline: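 HEp-2 cells (2.4×10^5 cells/mL, 2% FBS E-MEM) were infected with RSV alongside 3-fold compound dilutions and incubated at 37 °C, 4 days for A2 and 5 days for B Wash/18537. Viable cells quantified by CellTiter-Glo 2.0 luminescence; EC50 by nonlinear regression as 50% CPE inhibition.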

[1] = human respiratory syncytial virus, inhibitory effect against RSV type A (RSV A2 strain), HEp-2 cells, CPE inhibition, read-out: EC50
[2] = inhibitory effect against RSV type A (RSV A2 strain), HEp-2 cells, CPE inhibition, read-out: EC50

## O=C(NC1(C(=O)O)C2CC3CC(C2)CC1C3)c1cnc(N2CCc3cc(OC4CCN(C5COC5)CC4)ccc32)nc1C(F)(F)F (centres unmarked) [Compound I-220]
[1]
  EC50: < 0.01 µM

## O=C(NC1(C(=O)O)C2CC3CC(C2)CC1C3)c1ccc(-c2cn(C3CCOCC3)c3cc(OC4CCN(c5ncccn5)CC4)c(F)cc23)nc1C(F)(F)F (centres unmarked) [Compound I-222]
[1]
  EC50: < 0.01 µM

## O=C(NC1(C(=O)O)C2CC3CC(C2)CC1C3)c1cnc(N2CC3(CCOCC3)c3cc(OC4CN(C(=O)OCc5ccccc5)C4)ccc32)nc1C(F)(F)F (centres unmarked) [Compound I-224]
[1]
  EC50: < 0.01 µM

## O=C(NC1(C(=O)O)C2CC3CC(C2)CC1C3)c1cnc(-c2cn(C3CCC(F)(F)CC3)c3ccc(OC4CCN(C5COC5)CC4)cc23)nc1C(F)(F)F (centres unmarked) [Compound I-225]
[1]
  EC50: 0.01 to 0.1 µM

## O=C(NC1(C(=O)O)C2CC3CC(C2)CC1C3)c1cnc(N2CC3(CCOCC3)c3cc(OC4CN(C5COC5)C4)ccc32)nc1C(F)(F)F (centres unmarked) [Compound I-226]
[1]
  EC50: < 0.01 µM

## Cc1nc(N2CC3(CCOCC3)c3cc(OC4CCN(c5ncccn5)CC4)ccc32)nc(C(F)(F)F)c1C(=O)NC1(C(=O)O)C2CC3CC(C2)CC1C3 (centres unmarked) [Compound I-229]
[1]
  EC50: < 0.01 µM

## O=C(NC1(C(=O)O)C2CC3CC(C2)CC1C3)c1cnc(N2CC3(CCOCC3)c3cc(OC4CN(C(=O)C5COC5)C4)ccc32)nc1C(F)(F)F (centres unmarked) [Compound I-230]
[1]
  EC50: < 0.01 µM

## Cn1cc(CN2CC(Oc3ccc4c(c3)C3(CCOCC3)CN4c3ncc(C(=O)NC4(C(=O)O)C5CC6CC(C5)CC4C6)c(C(F)(F)F)n3)C2)cn1 (centres unmarked) [Compound I-231]
[1]
  EC50: < 0.01 µM

## O=C(NC1(C(=O)O)C2CC3CC(C2)CC1C3)c1cnc(-c2cn(C3CCC(F)(F)CC3)c3ccc(O[C@H]4CC[C@H](n5cccn5)CC4)cc23)nc1C(F)(F)F (some centres unmarked) [Compound I-232]
[1]
  EC50: < 0.01 µM

## O=C(NC1(C(=O)O)C2CC3CC(C2)CC1C3)c1cnc(-c2cn(C3CCC(F)(F)CC3)c3cc(OC4CCN(c5nccs5)CC4)ccc23)nc1C(F)(F)F (centres unmarked) [Compound I-236]
[1]
  EC50: < 0.01 µM

## O=C(NC1(C(=O)O)C2CC3CC(C2)CC1C3)c1ccc(-c2cn(C3CCC(F)(F)CC3)c3cc(OC4CCN(C5COC5)CC4)ccc23)nc1C(F)(F)F (centres unmarked) [Compound I-240]
[1]
  EC50: < 0.01 µM

## O=C(NC1(C(=O)O)C2CC3CC(C2)CC1C3)c1cnc(-c2cn(C3CCC(F)(F)CC3)c3cc(OC4CCN(c5ncccc5F)CC4)ccc23)nc1C(F)(F)F (centres unmarked) [Compound I-241]
[1]
  EC50: < 0.01 µM

## O=C(NC1(C(=O)O)C2CC3CC(C2)CC1C3)c1cnc(-c2cn(C3CCC(F)(F)CC3)c3cc(OC4CCN(C5CCOCC5)CC4)ccc23)nc1C(F)(F)F (centres unmarked) [Compound I-242]
[1]
  EC50: < 0.01 µM

## O=C(NC1(C(=O)O)C2CC3CC(C2)CC1C3)c1cnc(N2CC3(CCCC3)c3cc(OC4CCN(c5ncccn5)CC4)ccc32)nc1C(F)(F)F (centres unmarked) [Compound I-244]
[1]
  EC50: < 0.01 µM

## O=C(NC1(C(=O)O)C2CC3CC(C2)CC1C3)c1cnc(-c2cn(C3CCC(F)(F)CC3)c3cc(O[C@@H]4CCN(C5COC5)C4)ccc23)nc1C(F)(F)F (some centres unmarked) [Compound I-246]
[1]
  EC50: < 0.01 µM

## CC(=O)N1CCC(Oc2ccc3c(-c4ncc(C(=O)NC5(C(=O)O)C6CC7CC(C6)CC5C7)c(C(F)(F)F)n4)cn(C4CCC(F)(F)CC4)c3c2)CC1 (centres unmarked) [Compound I-247]
[1]
  EC50: < 0.01 µM

## O=C(NC1(C(=O)O)C2CC3CC(C2)CC1C3)c1cnc(-c2cn(C3CCC(F)(F)CC3)c3cc(O[C@H]4CCN(C5COC5)C4)ccc23)nc1C(F)(F)F (some centres unmarked) [Compound I-248]
[1]
  EC50: < 0.01 µM

## O=C(NC1(C(=O)O)C2CC3CC(C2)CC1C3)c1ccc(-c2cn(C3CS(=O)(=O)C3)c3cc(OC4CCN(c5ncccn5)CC4)ccc23)nc1C(F)(F)F (centres unmarked) [Compound I-251]
[1]
  EC50: < 0.01 µM

## O=C(NC1(C(=O)O)C2CC3CC(C2)CC1C3)c1ccc(-c2cn(CC(F)(F)F)c3cc(OC4CCN(c5ncccn5)CC4)ccc23)nc1C(F)(F)F (centres unmarked) [Compound I-252]
[1]
  EC50: < 0.01 µM

## COCCN1CCC(Oc2ccc3c(-c4ncc(C(=O)NC5(C(=O)O)C6CC7CC(C6)CC5C7)c(C(F)(F)F)n4)cn(C4CCC(F)(F)CC4)c3c2)CC1 (centres unmarked) [Compound I-253]
[1]
  EC50: < 0.01 µM

## CS(=O)(=O)CCN1CCC(Oc2ccc3c(-c4ncc(C(=O)NC5(C(=O)O)C6CC7CC(C6)CC5C7)c(C(F)(F)F)n4)cn(C4CCC(F)(F)CC4)c3c2)CC1 (centres unmarked) [Compound I-254]
[1]
  EC50: 0.01 to 0.1 µM

## COC(=O)N1CCC(Oc2ccc3c(-c4ncc(C(=O)NC5(C(=O)O)C6CC7CC(C6)CC5C7)c(C(F)(F)F)n4)cn(C4CCC(F)(F)CC4)c3c2)CC1 (centres unmarked) [Compound I-255]
[1]
  EC50: < 0.01 µM

## O=C(NC1(C(=O)O)C2CC3CC(C2)CC1C3)c1cnc(-c2cn(C3CCC(F)(F)CC3)c3cc(OC4CCN(C(=O)C5CC5)CC4)ccc23)nc1C(F)(F)F (centres unmarked) [Compound I-258]
[1]
  EC50: < 0.01 µM

## O=C(NC1(C(=O)O)C2CC3CC(C2)CC1C3)c1cnc(-c2cn(C3CCC(F)(F)CC3)c3cc(OC4CCN(S(=O)(=O)C5CC5)CC4)ccc23)nc1C(F)(F)F (centres unmarked) [Compound I-259]
[1]
  EC50: < 0.01 µM

## O=C(NC1(C(=O)O)C2CC3CC(C2)CC1C3)c1cnc(-c2cn(C3CCC(F)(F)CC3)c3cc(OC4CCN(C(=O)c5ncccn5)CC4)ccc23)nc1C(F)(F)F (centres unmarked) [Compound I-260]
[1]
  EC50: 0.01 to 0.1 µM

## O=C(NC1(C(=O)O)C2CC3CC(C2)CC1C3)c1ccc(-c2cn(CC3CC(F)(F)C3)c3cc(OC4CCN(c5ncccn5)CC4)ccc23)nc1C(F)(F)F (centres unmarked) [Compound I-264]
[1]
  EC50: < 0.01 µM

## O=C(NC1(C(=O)O)C2CC3CC(C2)CC1C3)c1ccc(-c2cn(CC3COC3)c3cc(OC4CCN(c5ncccn5)CC4)ccc23)nc1C(F)(F)F (centres unmarked) [Compound I-265]
[1]
  EC50: < 0.01 µM

## Cn1c(C2CCOCC2)c(-c2ccc(C(=O)NC3(C(=O)O)C4CC5CC(C4)CC3C5)c(C(F)(F)F)n2)c2ccc(OC3CCN(c4ncccn4)CC3)cc21 (centres unmarked) [Compound I-270]
Human respiratory syncytial virus, HEp-2, 96 h, read-out: EC50, inhibitory effect against RSV type A (CPE inhibition)
  EC50: 0.037 µM

## CC1CN(c2ncccn2)CCC1Oc1ccc2c(-c3ncc(C(=O)NC4(C(=O)O)C5CC6CC(C5)CC4C6)c(C(F)(F)F)n3)cn(C3CCC(F)(F)CC3)c2c1 (centres unmarked) [Compound I-273]
[1]
  EC50: < 0.01 µM

## O=C(NC1(C(=O)O)C2CC3CC(C2)CC1C3)c1cnc(N2CC3(CCOCC3)c3cc(OC4CCN(c5ncc(C(F)(F)F)cn5)CC4)ccc32)nc1C(F)(F)F (centres unmarked) [Compound I-274]
[1]
  EC50: < 0.01 µM

## O=C(NC1(C(=O)O)C2CC3CC(C2)CC1C3)c1cnc(-c2cn(C3CCC(F)(F)CC3)c3cc(OCc4ccc5c(c4)OCC5)ccc23)nc1C(F)(F)F (centres unmarked) [Compound I-278]
[1]
  EC50: < 0.01 µM

## O=C(NC1(C(=O)O)C2CC3CC(C2)CC1C3)c1cnc(N2CC3(CCOCC3)c3cc(-c4ccccc4)ccc32)nc1C(F)(F)F (centres unmarked) [Compound I-279]
[1]
  EC50: < 0.01 µM

## O=C(NC1(C(=O)O)C2CC3CC(C2)CC1C3)c1cnc(N2CC3(CCOCC3)c3cc(Nc4ccccn4)ccc32)nc1C(F)(F)F (centres unmarked) [Compound I-280]
[1]
  EC50: < 0.01 µM

## CC1(C)CCC(n2cc(-c3ccc(C(=O)NC4(C(=O)O)C5CC6CC(C5)CC4C6)c(C(F)(F)F)n3)c3ccc(OC4CCN(c5ncccn5)CC4)cc32)CC1 (centres unmarked) [Compound I-281]
[1]
  EC50: < 0.01 µM

## Cc1c(OC2CCN(c3ncccn3)CC2)ccc2c(-c3ncc(C(=O)NC4(C(=O)O)C5CC6CC(C5)CC4C6)c(C(F)(F)F)n3)cn(C3CCC(F)(F)CC3)c12 (centres unmarked) [Compound I-282]
[1]
  EC50: < 0.01 µM

## O=C(NC1(C(=O)O)C2CC3CC(C2)CC1C3)c1cnc(N2CC3(CCOCC3)c3cc(F)ccc32)nc1C(F)(F)F (centres unmarked) [Compound I-284]
[1]
  EC50: < 0.01 µM

## O=C(NC1(C(=O)O)C2CC3CC(C2)CC1C3)c1ccc(-c2cn([C@H]3CC[C@@H](C(F)(F)F)CC3)c3cc(OC4CCN(c5ncccn5)CC4)ccc23)nc1C(F)(F)F (some centres unmarked) [Compound I-285]
[1]
  EC50: < 0.01 µM

## O=C(NC1(C(=O)O)C2CC3CC(C2)CC1C3)c1ccc(-c2cn([C@H]3CC[C@H](C(F)(F)F)CC3)c3cc(OC4CCN(c5ncccn5)CC4)ccc23)nc1C(F)(F)F (some centres unmarked) [Compound I-286]
[1]
  EC50: 0.01 to 0.1 µM

## O=C(NC1(C(=O)O)C2CC3CC(C2)CC1C3)c1cnc(N2CC3(CCOCC3)c3c2cc(F)c(F)c3F)nc1C(F)(F)F (centres unmarked) [Compound I-287]
[1]
  EC50: < 0.01 µM

## O=C(NC1(C(=O)O)C2CC3CC(C2)CC1C3)c1ccc(-c2cn(C3CCCC3)c3cc(OC4CCN(c5ncccn5)CC4)ccc23)nc1C(F)(F)F (centres unmarked) [Compound I-289]
[1]
  EC50: < 0.01 µM

## O=C(NC1(C(=O)O)C2CC3CC(C2)CC1C3)c1ccc(-c2cn(-c3ccc(F)cn3)c3cc(OC4CCN(c5ncccn5)CC4)ccc23)nc1C(F)(F)F (centres unmarked) [Compound I-290]
[1]
  EC50: < 0.01 µM

## O=C(NC1(C(=O)O)C2CC3CC(C2)CC1C3)c1cnc(N2CC3(CCOCC3)c3cc(Cc4ccccc4)ccc32)nc1C(F)(F)F (centres unmarked) [Compound I-293]
[2]
  EC50: 0.01 to 0.1 µM

## CC(F)(F)c1nc(N2CC3(CCOCC3)c3cc(OC4CCN(c5ncccn5)CC4)ccc32)ncc1C(=O)NC1(C(=O)O)C2CC3CC(C2)CC1C3 (centres unmarked) [Compound I-294]
[2]
  EC50: < 0.01 µM

## COc1cccc(-n2cc(-c3ccc(C(=O)NC4(C(=O)O)C5CC6CC(C5)CC4C6)c(C(F)(F)F)n3)c3ccc(OC4CCN(c5ncccn5)CC4)cc32)n1 (centres unmarked) [Compound I-296]
[2]
  EC50: < 0.01 µM

## O=C(NC1(C(=O)O)C2CC3CC(C2)CC1C3)c1cnc(N2CC3(CCOCC3)c3cc4c(cc32)OC(F)(F)O4)nc1C(F)(F)F (centres unmarked) [Compound I-299]
[2]
  EC50: 0.01 to 0.1 µM

## CC(C)(C)C[C@@H](NC(=O)c1cnc(-c2cn(C3CCC(F)(F)CC3)c3cc(OC4CCN(c5ncccn5)CC4)ccc23)nc1C(F)(F)F)C(=O)O [Compound I-302]
[1]
  EC50: < 0.01 µM

## O=C(NC1(C(=O)O)C2CC3CC(C2)CC1C3)c1ccc(-c2cn(-c3ccc(C(F)(F)F)cn3)c3cc(OC4CCN(c5ncccn5)CC4)ccc23)nc1C(F)(F)F (centres unmarked) [Compound I-303]
[2]
  EC50: < 0.01 µM

## O=C(NC1(C(=O)O)C2CC3CC(C2)CC1C3)c1cnc(N2CC3(CCOCC3)c3cc(C(F)(F)F)ccc32)nc1C(F)(F)F (centres unmarked) [Compound I-307]
[2]
  EC50: < 0.01 µM

## O=C(NC1(C(=O)O)C2CC3CC(C2)CC1C3)c1ccc(-c2cn(-c3ncccc3F)c3cc(OC4CCN(c5ncccn5)CC4)ccc23)nc1C(F)(F)F (centres unmarked) [Compound I-310]
[2]
  EC50: < 0.01 µM

## Cc1cccnc1-n1cc(-c2ccc(C(=O)NC3(C(=O)O)C4CC5CC(C4)CC3C5)c(C(F)(F)F)n2)c2ccc(OC3CCN(c4ncccn4)CC3)cc21 (centres unmarked) [Compound I-311]
[2]
  EC50: < 0.01 µM

Reference: patent publication US12528790B2, “Amide derivative having antiviral activity” (Shionogi & Co., Ltd., priority 2020, dated 2026)
